This is an account of results in publication PMC12830207, “Targeting the protein–protein interaction between the CDC37 cochaperone and client kinases by an allosteric RAF dimer breaker” (The Journal of Biological Chemistry, 2025).

“Also recorded” adds a separate entry of the source.

In one assay the test system is HCT116 cells. Conditions: HCT116, previously reported, readout not given; read-out: EC50, braftide, HCT116; cited from earlier work. The text has this: Our findings highlight the therapeutic potential of targeting CDC37–client kinase interactions, as oncogenic kinases are intrinsically unstable and thus are more dependent on their association with the HSP90–CDC37 chaperone complex for stability and activation compared with their wildtype counterparts ([4]). […] HCT116 cells harbor an upstream KRAS […]–activating mutation, with a previously reported braftide ...

For another assay, the target named is BRAF kinase domain. The assay can be described thus: Hydrogen–deuterium exchange MS. It counts as binding, human. Conditions: BRAF^KD 10 μM, braftide 30 μM, pH 7.4, 20 s to 4.5 h, duplicate HDX–MS. The procedure: The 6XHIS-BRAF KD (residues 442–723, supplementary information 1) was purified as previously reported ([39]) with the human sequence expressed in Escherichia coli. The KD contains 16 solubilizing mutations (I543A, I544S, I551K, Q562R, L588N, K630S, F667E, Y673S, A688R, L706S, Q709R, S713E, L716E, S720E, P722S, and K723G), which were determined to preserve kinase activity and increase protein expression in E. coli. Mutations of the 16 residues are not involved in MEK1 interactions ([40], [41]). […] Protein induction was induced by 1 mM IPTG, 16 °C in a shaking incubator, 200 RPM. The pellet was lysed in a buffer containing 50 mM Hepes (pH 7.4), 250 mM NaCl, 50 mM KCl, 10 mM imidazole, 10 mM β-mercaptoethanol, 10% glycerol, and 1X protease inhibitor (Roche) under sonication. […] Protein fractions were analyzed on SDS-PAGE, pooled, and flash frozen for analytical use.
The exchange times varied from 20 s to 4.5 h. […] Peptides were identified through MS/MS analysis of nondeuterated samples, with data analyzed using SEQUEST (Thermo Proteome Discoverer) against a database containing sequences of BRAF^KD, braftide, pepsin, potential contaminants, and decoy proteins. Deuterated samples were analyzed using ExMS2 software (developed by Englander Lab at University of Pennsylvania).

For another assay, the system named is CDC37–CRAF interaction. As to the kind of experiment: Co-IP of CDC37-FLAG with CRAF-HA in HEK293. The format is cell-based, human (HEK293). Conditions: HEK293, 25 μM braftide, bortezomib pretreatment. The procedure:
HEK293 cells were seeded at 1(10)^6 cells per well for a 6-well plate or 5(10)^6 for 10 cm dishes and incubated until 40% to 60% confluency. Transfection was carried out using a 1:3 DNA:PEI-MAX ratio in OPTI-MEM and allowed 48 h for protein expression. For peptide assays, 48 h post-transfection, cells were treated with TAT–braftide carried in OPTI-MEM at indicated concentrations. Cells were harvested in cold PBS. Harvested cells were lysed in 4% SDS or modified radioimmunoprecipitation assay (RIPA) for co-IP experiments. Quantification of total protein by the bicinchoninic acid assay was carried out according to the manufacturer's protocols (Pierce; catalog no.: 23225).
Transfected HEK293 cells were treated with the indicated treatments and harvested in cold PBS. […] Samples were analyzed via immunoblot.
Western blot band densities were quantified with ImageJ software (National Institutes of Health) and normalized to the indicated loading control. Statistical significance was determined through one-/two-way ANOVA, where indicated, followed by Tukey's honest significant difference post hoc test with corresponding p values (∗p < 0.05, ∗∗p < 0.002, ∗∗∗p < 0.0002, and ∗∗∗∗p < 0.0001). […]

Take “GRKKRRQRRRPQ-miniPEG-TRHVNILLFM [Braftide]”: the EC50 in the assay on HCT116 cells was 7.1 ± 0.5 µM. The entries for the “braftide binding region on BRAF KD / change in deuterium uptake” value at BRAF kinase domain and on BRAF kinase domain (listed as braftide) were “slows deuterium incorporation compared to apo BRAF^KD; also recorded: essentially no change except in the dimer interface region” and “spanning amino acids 496 to 515”, respectively. Besides, the “CDC37–CRAF complex” value in the assay on CDC37–CRAF interaction was “reduced the CDC37–client BRAF–CRAF complex”.
